From US20070281992A1, “COMBINATION OF GYRASE B INHIBITORS AND PROTEIN SYNTHESIS INHIBITORS AND USES THEREOF” (priority 2006, published 2007)
Where two headings read alike, the source gives them in different places.

Assays:
[1] = test system: Enterococcus faecalis (ATCC 29212); conditions: E. faecalis ATCC 29212; accepted quality control range; cited from earlier work
[2] = test system: Staphylococcus aureus 0100 (ATCC 29213); test: MIC assay, quality control strain S. aureus ATCC 29213; type: cell-based; conditions: ATCC29213, read-out: Minimal Inhibitory Concentration, quality control, S. aureus ATCC 29213, repeat runs 22FEB06-09MAR06, combinations at 2.5:1
Outline: (§1)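 Testing followed NCCLS approved-standard dilution methodology in Mueller Hinton II broth across an 11-step two-fold series. Combinations containing novobiocin used a 2.5:1 ratio with the tetracycline partner.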

[3] = test system: Staphylococcus aureus 0100 (ATCC 29213); conditions: S. aureus ATCC 29213; accepted quality control range; cited from earlier work
[4] = test system: Enterococcus faecalis (ATCC 29212); test: MIC assay, quality control strain E. faecalis ATCC 29212; type: cell-based; conditions: ATCC29212, read-out: Minimal Inhibitory Concentration, quality control, E. faecalis ATCC 29212, repeat runs 22FEB06-09MAR06, combinations at 2.5:1
Outline: as §1

[5] = test system: Methicillin-Resistant Staphylococcus aureus Isolates; test: MIC assay (NCCLS broth dilution), MRSA clinical isolates; type: cell-based; conditions: for MIC: Staphylococcus aureus
Outline: as §1

CN[C@H](CC(C)C)C(=O)N[C@H]1C(=O)N[C@@H](CC(N)=O)C(=O)N[C@H]2C(=O)N[C@H]3C(=O)N[C@H](C(=O)N[C@H](C(=O)O)c4cc(O)cc(O)c4-c4cc3ccc4O)[C@H](O)c3ccc(c(Cl)c3)Oc3cc2cc(c3O[C@@H]2O[C@H](CO)[C@@H](O)[C@H](O)[C@H]2O[C@H]2C[C@](C)(N)[C@H](O)[C@H](C)O2)Oc2ccc(cc2Cl)[C@H]1O [VA, vancomycin]
0.5 to 2 µg/mL: CLSI QC Range (MIC) [3]
1 to 4 µg/mL: CLSI QC Range (MIC) [1]
.5 to 2 µg/mL: MIC Range ([5]; 52 MRSA isolates, combinations at 2.5:1, given as NB/partner)
2 µg/mL: MIC [4] | MIC ([5]; read-out: Minimal Inhibitory Concentration, MRSA isolate 1729, 03MAR06) | MIC ([5]; read-out: Minimal Inhibitory Concentration, MRSA isolate 2009, 24FEB06)
1 µg/mL: MIC ([5]; read-out: Minimal Inhibitory Concentration, MRSA isolate 757, 24FEB06) | MIC ([5]; read-out: Minimal Inhibitory Concentration, MRSA isolate 758, 03MAR06) | MIC ([5]; read-out: Minimal Inhibitory Concentration, MRSA isolate 758, 24FEB06) | MIC ([5]; read-out: Minimal Inhibitory Concentration, MRSA isolate 760, 03MAR06) | MIC ([5]; read-out: Minimal Inhibitory Concentration, MRSA isolate 760, 24FEB06) | MIC ([5]; read-out: Minimal Inhibitory Concentration, MRSA isolate 763, 22FEB06) | MIC ([5]; read-out: Minimal Inhibitory Concentration, MRSA isolate 771, 22FEB06) | MIC ([5]; read-out: Minimal Inhibitory Concentration, MRSA isolate 774, 24FEB06) | MIC ([5]; read-out: Minimal Inhibitory Concentration, MRSA isolate 775, 24FEB06) | MIC ([5]; read-out: Minimal Inhibitory Concentration, MRSA isolate 776, 24FEB06) | MIC ([5]; read-out: Minimal Inhibitory Concentration, MRSA isolate 778, 24FEB06) | MIC ([5]; read-out: Minimal Inhibitory Concentration, MRSA isolate 886, 24FEB06) | MIC ([5]; read-out: Minimal Inhibitory Concentration, MRSA isolate 888, 24FEB06) | MIC ([5]; read-out: Minimal Inhibitory Concentration, MRSA isolate 889, 24FEB06) | MIC ([5]; read-out: Minimal Inhibitory Concentration, MRSA isolate 1004, 24FEB06) | MIC ([5]; read-out: Minimal Inhibitory Concentration, MRSA isolate 1025, 22FEB06) | MIC ([5]; read-out: Minimal Inhibitory Concentration, MRSA isolate 1222, 03MAR06) | MIC ([5]; read-out: Minimal Inhibitory Concentration, MRSA isolate 1222, 24FEB06) | MIC ([5]; read-out: Minimal Inhibitory Concentration, MRSA isolate 1653, 03MAR06) | MIC ([5]; read-out: Minimal Inhibitory Concentration, MRSA isolate 1659, 03MAR06) | MIC ([5]; read-out: Minimal Inhibitory Concentration, MRSA isolate 1661, 03MAR06) | MIC ([5]; read-out: Minimal Inhibitory Concentration, MRSA isolate 1730, 24FEB06) | MIC ([5]; read-out: Minimal Inhibitory Concentration, MRSA isolate 2011, 24FEB06)
0.5 µg/mL: MIC [2] | MIC ([5]; read-out: Minimal Inhibitory Concentration, MRSA isolate 765, 22FEB06) | MIC ([5]; read-out: Minimal Inhibitory Concentration, MRSA isolate 766, 22FEB06) | MIC ([5]; read-out: Minimal Inhibitory Concentration, MRSA isolate 767, 22FEB06) | MIC ([5]; read-out: Minimal Inhibitory Concentration, MRSA isolate 768, 22FEB06) | MIC ([5]; read-out: Minimal Inhibitory Concentration, MRSA isolate 769, 22FEB06) | MIC ([5]; read-out: Minimal Inhibitory Concentration, MRSA isolate 770, 22FEB06) | MIC ([5]; read-out: Minimal Inhibitory Concentration, MRSA isolate 772, 22FEB06) | MIC ([5]; read-out: Minimal Inhibitory Concentration, MRSA isolate 773, 24FEB06) | MIC ([5]; read-out: Minimal Inhibitory Concentration, MRSA isolate 777, 24FEB06) | MIC ([5]; read-out: Minimal Inhibitory Concentration, MRSA isolate 887, 24FEB06) | MIC ([5]; read-out: Minimal Inhibitory Concentration, MRSA isolate 1010, 22FEB06) | MIC ([5]; read-out: Minimal Inhibitory Concentration, MRSA isolate 1012, 22FEB06) | MIC ([5]; read-out: Minimal Inhibitory Concentration, MRSA isolate 1013, 22FEB06) | MIC ([5]; read-out: Minimal Inhibitory Concentration, MRSA isolate 1014, 22FEB06) | MIC ([5]; read-out: Minimal Inhibitory Concentration, MRSA isolate 1015, 22FEB06) | MIC ([5]; read-out: Minimal Inhibitory Concentration, MRSA isolate 1016, 22FEB06) | MIC ([5]; read-out: Minimal Inhibitory Concentration, MRSA isolate 1017, 22FEB06) | MIC ([5]; read-out: Minimal Inhibitory Concentration, MRSA isolate 1021, 22FEB06) | MIC ([5]; read-out: Minimal Inhibitory Concentration, MRSA isolate 1022, 22FEB06) | MIC ([5]; read-out: Minimal Inhibitory Concentration, MRSA isolate 1023, 22FEB06) | MIC ([5]; read-out: Minimal Inhibitory Concentration, MRSA isolate 1024, 22FEB06) | MIC ([5]; read-out: Minimal Inhibitory Concentration, MRSA isolate 1135, 22FEB06) | MIC ([5]; read-out: Minimal Inhibitory Concentration, MRSA isolate 1136, 22FEB06) | MIC ([5]; read-out: Minimal Inhibitory Concentration, MRSA isolate 1137, 22FEB06) | MIC ([5]; read-out: Minimal Inhibitory Concentration, MRSA isolate 1138, 22FEB06) | MIC ([5]; read-out: Minimal Inhibitory Concentration, MRSA isolate 1658, 03MAR06) | MIC ([5]; read-out: Minimal Inhibitory Concentration, MRSA isolate 2010, 24FEB06)
